# System: PMA/ionomycin-stimulated PBMC proliferation
# Test: Inhibition of PMA/ionomycin-stimulated peripheral blood mononuclear cell proliferation
# Type: cell-based
# Details: human PBMC, PMA 0.5 ng/ml + ionomycin 500 ng/ml, 72 hours, 3H-thymidine incorporation; read-out: PIA50 (the source's name) (converted)
# Protocol: Inhibition of PMA/Ionomycin-Stimulated Peripheral Blood Mononuclear Cell Proliferation
# The assay for PMA/ionomycin-stimulated PBMC proliferation was performed in 96-well flat-bottomed microtitre plates. Compounds were prepared as 10 mM stock solutions in dimethyl sulfoxide. A 50-fold dilution of this was prepared in RPMI and serial dilutions were prepared from this solution. 10 μl of the 50-fold diluted stock, or dilutions of it, were added to the well to give concentrations in the assay starting at 9.5 μM and going down. Into each well was placed 1×10^5 PBMC, prepared from human peripheral blood from a single donor, in RPMI1640 medium supplemented with 10% human serum, 2 mM glutamine and penicillin/streptomycin. Phorbol myristate acetate (PMA) (0.5 ng/ml final concentration) and ionomycin (500 ng/ml final concentration) were added to these cells in supplemented RPMI1640 medium (as above) so that the final volume of the assay was 0.2 ml. The cells were incubated at 37° C. in a humidified atmosphere at 5% carbon dioxide for 72 hours. ^3H-Thymidine (0.5 μCi) was added for the final 6 hours of the incubation. The level of radioactivity incorporated by the cells was then determined and this is a measure of proliferation.
row,SMILES,IC50 [nM]
1,"Cc1nn(-c2nccs2)c(C)c1Cc1sc2c(c1C(=O)N1C[C@H](O)CO1)c(=O)n(C)c(=O)n2C(C)C [Example 3, (S)-2-[[6-[[3,5-Dimethyl-1-(2-thiazolyl)-1H-pyrazol-4-yl]methyl]-1,2,3,4-tetrahydro-3-methyl-1-(1-methylethyl)-2,4-dioxothieno[2,3-d]pyrimidin-5-yl]carbonyl]-4-isoxazolidinol]",0.851
2,"Cc1nn(-c2ncccn2)c(C)c1Cc1sc2c(c1C(=O)N1C[C@H](O)CO1)c(=O)n(C)c(=O)n2C(C)C [Example 1, 6-[[3,5-dimethyl-1-(2-pyrimidinyl)-1H-pyrazol-4-yl]methyl]-5-[[(4S)-4-hydroxy-2-isoxazolidinyl]carbonyl]-3-methyl-1-(1-methylethyl)thieno[2,3-d]pyrimidine-2,4(1H,3H)-dione]",5.01

# From patent publication US20080221131A1, “THIENOPYRIMIDINEDIONES AND THEIR USE IN MODULATION OF AUTOIMMUNE DISEASE” (priority 2003, published 2008)
